Legend:
[1] = Double cuvette-ISES (in situ enzymatic screening) of Co(III)-salen mediated HKR of (±)-propylene oxide; details: bilayer of pH 8.6 buffer over 7.2 M epoxide in CHCl3, 0.25 mol % catalyst, 15-35 min; + = (S), − = (R)
Protocol: Aqueous reporting layers. containing TBADH/NADP+ (cuvette 1) and HLADH/NAD+ (cuvette 2), respectively, are then added. The increase in absorbance at 340 nm can be followed for several such sets in parallel by UV-vis spectrophotometry. The kinetic data are then used to make the double-cuvette ISES predictions.
A general procedure for double cuvette-ISES to estimate both enantioselectivities and relative rates for an array of catalysts being screened in parallel is presented below. The hydrolytic kinetic resolution (HKR) of (±) propylene oxide was chosen as model reaction.
Typically, quartz cuvettes with one cm light paths and with nominal one mL volumes were used. For each catalyst, a two cuvette screen was performed, with cuvette A containing HLADH, as (S)-propanediol-selective reporting enzyme, and cuvette B containing TBADH, as a (R)-propanediol-selective reporting enzyme. For each cuvette, the final volume was 800 μL (300 μL of organic layer; 500 μL of aqueous layer).
Both cuvettes A and B had the following composition: 150 μL (2.15 mmol) of (±)-propylene oxide (7.2 M in organic layer), 150 μL of CHCl3 and 0.25 mol % Co(III)-salen catalyst. The total organic layer volume was maintained as 300 μL in all catalyst screens.
(i) Cuvette A: 0.35 U HLADH (17.6 μL from a stock solution (0.02U/μL)), 7.2 mM β-NAD+(16.5 μL from a 220 mM stock) and 465.8 μL of 50 mM sodium pyrophosphate buffer, pH 8.8. The final pH was 8.6.
(ii) Cuvette B: 0.35 U TBADH (15.8 μL from a stock solution (0.022U/μL)) of, 2.2 mM β-NADP+ (5 μL from a 220 mM stock) and 479.5 μL of 50 mM sodium pyrophosphate buffer, pH 8.8. The final pH was 8.6. The total volume of the aqueous layer was maintained as 500 μL in both cuvettes in all ISES experiments.
C. Step by Step Protocol: A catalyst stock solution (22 μmol of catalyst in 620 μL CHCl3) was made up in a 1.5 ml microcentrifuge tube, and stored on ice, along with a stock of (±)-propylene oxide, in a separate tube. The organic layers were prepared by briefly vortexing 150 μL (5.4 μmol, 0.25 mol %) of the catalyst stock in CHCl3 with 150 μL (2.15 mmol) of (±)-propylene oxide in iced microcentrifuge tubes. These were loaded into 1 mL quartz cuvettes using precooled (refrigerator), disposable 1 mL syringes. The aqueous layers were then layered on top of the organic layers, by syringe, down the walls of the cuvette.

[2] = HKR of (±)-propylene oxide under standard neat 'Jacobsen conditions' (NMR conversion, chiral HPLC ee); details: for NMR conv. (time): 3 h; for NMR conv. (time) / % ee (HPLC): loading 0.25 mol %; for % ee of the 1,2-propanediol product, as observed by chiral HPLC (lower number): neat propylene oxide, 0.55 equiv. H2O, 0.25 mol % catalyst, 3 h reaction time
Protocol: Salens in the fully synthetic, 42 member focused library that led to catalysts with appreciable activity, as indicated by double cuvette-ISES, were also evaluated ‘outside of the cuvette,’ under conditions more typically employed in HKR reactions. Specifically, these Co(III)-salen catalysts were evaluated in the HKR of (±)-propylene oxide, under neat conditions, similar to those described by Jacobsen and coworkers. Reactions were arbitrarily stopped after 3 hours, to obtain the enantiopurity of the 1,2-propanediol product at relatively early reaction times, for comparison with ISES predictions.
A typical procedure follows: To the Co(III)-salen catalyst derived from 7e (5.4 mg, 5.4 μmol, 0.25 mol %) and (±)-propylene oxide (125 mg, 2.15 mmol) at 0° C., was added water (21 μL, 1.18 mmol, 0.55 equiv.). The reaction mixture was securely capped, and allowed to warm to room temperature and stirred, most commonly for a total of 3 hours. Percent conversion at 3 hours was evaluated by 1H NMR of an aliquot (cooled to 0° C. for the transfer), in CDCl3. In most of these cases, the conversion was low enough after 3 hours, that the unreacted epoxide (bp 32° C.) was of relatively low ee, and was therefore removed by evaporation under aspirator vacuum. When the conversion was less than 5% by NMR after 3 hours, reactions were continued for longer times.
Upon termination of the reaction, the diol product was isolated by Kugelrohr distillation (˜120° C.-oven temp; 0.1 torr). To determine ee, the isolated diol was derivatized using p-bromobenzoyl imidazole (2.2 equiv.) in THF in the presence of NaH (4 equiv.) at room temperature for 5 min. The bis(p-bromobenzoate) esters obtained following sequential washes with 1 N HCl and saturated sodium bicarbonate, were of sufficient purity to be used directly for chiral HPLC analysis (Chiralcel OD, 99% […]). [drawing 23] [drawing 24] [drawing 25] [drawing 26] [drawing 27]

[3] = [total 1,2-propanediol] in aqueous ISES layer by 1H NMR; details: for [diol] (mM) @ 15 min: aqueous ISES layer, 1H NMR, t = 15 min; for Norm.: normalized to the catalyst derived from salen 3b (rate 1.0)
Protocol: The concentration of 1,2-propanediol in the aqueous layer was estimated under typical ISES conditions using 1H NMR spectroscopy. The bilayer was prepared as usual for double cuvette-ISES (Section V), but for the substitution of D2O for H2O in the buffer, and the elimination of the dehydrogenase enzymes. After 15 min, the aqueous layer (300 μL of 500 μL total) was withdrawn and mixed with a fresh solution of imidazole of known concentration (also 300 μL in D2O), as an internal concentration standard. Accumulation of the 1H NMR spectrum, followed by integration and quantitation, provided an experimental measure of [total diol] in the aqueous reporting layer at t=15 minutes for the catalyst under investigation. The observed diol concentrations for ten catalysts examined in this way are collected in Table S6, below. These have been normalized to the value for the catalyst derived from salen 3b (arbitrarily assigned a rate of 1.0).

[4] = reaction stopped at the time given (mostly 3 h), + = (S), − = (R)

| Compound | % ee of the 1,2-propanediol product, as predicted by double-cuvette ISES (upper number) [1] | NMR conv. (time) [2] | % ee (HPLC) [2, 4] | % ee of the 1,2-propanediol product, as observed by chiral HPLC (lower number) ([2]; + = (S), − = (R)) | [diol] (mM) @ 15 min [3] [mM] | Norm. [3] | % ee (HPLC) ([2]; @1 h) | % ee (HPLC) ([2]; @3 h) |
| --- | --- | --- | --- | --- | --- | --- | --- | --- |
| Oc1c(C=NC[C@H](Cc2ccc3ccccc3c2)N=Cc2ccc3ccccc3c2O)ccc2ccccc12 [Salen 5d, N,N′-Bis(1′-hydroxy-2′-naphthylidene)-(1S)-(β-naphthylmethyl)-1,2-ethylenediamine] | +9 % ee | 10 (3 h) % | +11 (S) % ee | +11 % ee | 54 | 0.56 |  |  |
| CC(C)(C)c1cccc(C=NC[C@H](Cc2cccc3ccccc23)N=Cc2cccc(C(C)(C)C)c2O)c1O [Salen 4b, N,N′-Bis(3′-tert-butylsalicylidene)-(1S)-(α-naphthylmethyl)-1,2-ethylenediamine] | +91 % ee | 50 (3 h) % | +59 (S) % ee | +59 % ee | 98 | 1.02 |  |  |
| CC(C)(C)c1cc(C=NC[C@H](Cc2ccc3ccccc3c2)N=Cc2cc(C(C)(C)C)cc(C(C)(C)C)c2O)c(O)c(C(C)(C)C)c1 [Salen 5a, N,N′-Bis(3′,5′-di-tert-butylsalicylidene)-(1S)-(β-naphthylmethyl)-1,2-ethylenediamine] | +87 % ee | 36 (3 h) % | +66 (S) % ee | +66 % ee | 52.5 | 0.55 |  |  |
| N,N′-Bis(1′-hydroxy-2′-naphthylidene)-[1R-(1α,2α,5α)]-2-amino-7,7-dimethyl-2-bicyclo[3.3.1]heptane-ethanamine [Salen 1d] | +75 % ee |  |  | +81 % ee | 91 | 0.95 | +81@1 h, % ee | +67@3 h (S) % ee |
| CC(C)(C)c1cc(C=NC[C@@H](N=Cc2cc(C(C)(C)C)cc(C(C)(C)C)c2O)c2ccccc2)c(O)c(C(C)(C)C)c1 [Salen 2a, N,N′-Bis(3′,5′-di-tert-butylsalicylidene)-(1S)-phenyl-1,2-ethylenediamine] | −97 % ee | 17 (3 h) % | −93 (R) % ee | −93 % ee | 27.5 | 0.29 |  |  |
| CC(C)(C)c1cccc(C=NC[C@H](Cc2ccc3ccccc3c2)N=Cc2cccc(C(C)(C)C)c2O)c1O [Salen 5b, N,N′-Bis(3′-tert-butylsalicylidene)-(1S)-(β-naphthylmethyl)-1,2-ethylenediamine] | +65 % ee | 45 (3 h) % | +68 (S) % ee | +68 % ee | 75.5 | 0.79 |  |  |
